{"source": "ChEMBL document CHEMBL3817758", "about": "“Design and synthesis of dual 5-HT1A and 5-HT7 receptor ligands” (Bioorg Med Chem, 2016)", "assay_in_all_cases": "biochemical", "key": {"[1]": {"target": "T1, 5-hydroxytryptamine receptor 2C (Rattus norvegicus, UniProt P08909)", "T1 sequence (P08909 whole entry)": "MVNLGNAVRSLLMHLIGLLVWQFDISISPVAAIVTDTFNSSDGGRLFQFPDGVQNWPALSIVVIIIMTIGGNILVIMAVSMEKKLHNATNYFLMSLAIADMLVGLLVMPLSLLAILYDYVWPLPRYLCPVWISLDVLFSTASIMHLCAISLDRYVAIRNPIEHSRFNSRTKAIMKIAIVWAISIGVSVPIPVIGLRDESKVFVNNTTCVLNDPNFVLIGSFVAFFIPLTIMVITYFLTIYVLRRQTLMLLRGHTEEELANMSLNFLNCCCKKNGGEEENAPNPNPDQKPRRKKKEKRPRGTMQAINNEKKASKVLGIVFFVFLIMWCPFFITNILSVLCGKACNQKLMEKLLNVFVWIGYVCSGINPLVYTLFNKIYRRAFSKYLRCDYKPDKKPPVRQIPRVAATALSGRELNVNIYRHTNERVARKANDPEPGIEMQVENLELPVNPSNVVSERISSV"}, "[2]": {"target": "Sodium-dependent serotonin transporter (Homo sapiens, UniProt P31645)", "sequence (P31645 whole entry)": "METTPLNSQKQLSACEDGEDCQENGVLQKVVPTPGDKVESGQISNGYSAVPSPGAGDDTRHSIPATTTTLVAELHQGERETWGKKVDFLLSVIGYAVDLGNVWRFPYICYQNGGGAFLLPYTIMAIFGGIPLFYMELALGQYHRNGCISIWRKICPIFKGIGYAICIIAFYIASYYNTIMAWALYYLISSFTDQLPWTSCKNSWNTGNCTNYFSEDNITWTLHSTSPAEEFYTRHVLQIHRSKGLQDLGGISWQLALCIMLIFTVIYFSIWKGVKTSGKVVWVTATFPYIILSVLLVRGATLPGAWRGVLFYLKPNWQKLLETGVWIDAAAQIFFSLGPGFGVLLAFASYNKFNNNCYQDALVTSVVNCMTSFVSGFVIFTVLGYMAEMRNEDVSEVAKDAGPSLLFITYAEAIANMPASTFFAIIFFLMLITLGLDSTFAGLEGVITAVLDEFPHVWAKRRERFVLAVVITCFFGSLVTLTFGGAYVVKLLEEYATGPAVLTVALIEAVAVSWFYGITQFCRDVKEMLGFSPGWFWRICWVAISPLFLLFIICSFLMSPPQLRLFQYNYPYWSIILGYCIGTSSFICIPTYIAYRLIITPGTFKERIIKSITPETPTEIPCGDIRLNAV"}, "[3]": {"target": "D(2) dopamine receptor (Homo sapiens, UniProt P14416)", "sequence (P14416 whole entry)": "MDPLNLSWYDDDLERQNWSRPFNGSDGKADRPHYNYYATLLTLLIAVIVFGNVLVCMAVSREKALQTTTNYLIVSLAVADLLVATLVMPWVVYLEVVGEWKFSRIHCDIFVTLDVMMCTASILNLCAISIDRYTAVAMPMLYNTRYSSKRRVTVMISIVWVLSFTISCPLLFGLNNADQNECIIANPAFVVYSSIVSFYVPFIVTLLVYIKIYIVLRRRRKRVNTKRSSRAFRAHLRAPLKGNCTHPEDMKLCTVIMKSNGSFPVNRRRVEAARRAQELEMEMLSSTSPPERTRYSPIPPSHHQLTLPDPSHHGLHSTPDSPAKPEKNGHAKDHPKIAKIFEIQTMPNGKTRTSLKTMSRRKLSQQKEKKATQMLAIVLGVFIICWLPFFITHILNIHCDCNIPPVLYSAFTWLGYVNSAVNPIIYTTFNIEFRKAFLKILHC"}, "[4]": {"target": "T2, D(4) dopamine receptor (Rattus norvegicus, UniProt P30729)", "T2 sequence (P30729 whole entry)": "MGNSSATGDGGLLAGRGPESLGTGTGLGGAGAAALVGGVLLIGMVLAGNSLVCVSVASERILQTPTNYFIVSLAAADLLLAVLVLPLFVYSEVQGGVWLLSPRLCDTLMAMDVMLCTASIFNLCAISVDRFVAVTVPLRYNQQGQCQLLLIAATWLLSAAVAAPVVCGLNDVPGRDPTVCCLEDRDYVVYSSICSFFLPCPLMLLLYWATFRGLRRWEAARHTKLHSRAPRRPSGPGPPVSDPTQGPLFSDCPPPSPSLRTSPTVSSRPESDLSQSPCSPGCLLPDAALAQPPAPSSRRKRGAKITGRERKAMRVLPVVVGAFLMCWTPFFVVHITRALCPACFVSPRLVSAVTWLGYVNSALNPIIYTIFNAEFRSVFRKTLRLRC"}}, "data": [{"smiles": "COc1ccc(C(=O)CCCN2CCc3ccccc3C2)cc1", "values": [{"measurement": "Ki", "setting": "[1]", "value": 1.4, "unit": "µM"}]}, {"smiles": "O=C1c2ccccc2C(=O)N1CCCCN1CCC2CCCCC2C1", "note": "(stereo not given)", "values": [{"measurement": "Ki", "setting": "[2]", "value": "> 10", "unit": "µM"}, {"measurement": "Ki", "setting": "[3]", "value": "> 10", "unit": "µM"}, {"measurement": "Ki", "setting": "[4]", "value": "> 10", "unit": "µM"}]}, {"smiles": "NC(=O)c1ccc(C(=O)CCCN2CCc3ccccc3C2)cc1", "values": [{"measurement": "Ki", "setting": "[1]", "value": 1.89, "unit": "µM"}]}]}
